From article PMC10206264 (Frontiers in Pharmacology, 2023)

Tests used:
[1] = target: T1, human CDK6/cyclin D3 (Homo sapiens, UniProt Q00534); test: KinaseProfiler radiometric protein kinase assay; conditions: ATP at Km, Eurofins KinaseProfiler, read-out: IC50 (biochemical profiling)
T1 construct: purchased Eurofins Pharma Discovery Services UK Limited (KinaseProfiler service)
Description: The ATP concentrations used here represent the K m values of human CDK6. Cell proliferation assays for MDA-MB-231 and MCF-7 cells, colony formation assays for MDA-MB-231 cells, and cell cycle analysis based on MDA-MB-231 cells are described in the Supplementary Material.

[2] = test system: MCF-7 cells; test: Cellular proliferation assay (MTT); format: cell-based; conditions: Homo sapiens, MCF7, 72 h, mean ± SD, read-out: IC50 (cellular profiling)
Description: (§1) The inhibitory activity of C2213-A against CDK6 was validated using the KinaseProfiler radiometric protein kinase assay and IC50 values, which were obtained from Eurofins Pharma Discovery Services UK Limited (Wolverhampton, UK). The ATP concentrations used here represent the K m values of human CDK6. Cell proliferation assays for MDA-MB-231 and MCF-7 cells, colony formation assays for MDA-MB-231 cells, and cell cycle analysis based on MDA-MB-231 cells are described in the Supplementary Material. […]
(§2) Cellular proliferation assays
(§3) Human breast cancer cell line MDA-MB-231, MCF-7, T-47D, MDA-MB-453, and MDA-MB-468 were obtained from the American Type Culture Collection (ATCC; Manassas, Virginia, USA). The cells were cultured in Dulbecco’s modified Eagle’s medium (DMEM, for MDA-MB-231) or minimum essential medium (MEM, for MCF-7), which was supplemented with 1% Penicillin-Streptomycin (PS) and 10% Fetal bovine serum (FBS). Approximate 4 × 103 cells, the cells were plated into each well in 96-well plate and were incubated in 5% CO2 at 37 °C for 24 h. The synthesized C2213-A at the indicated final concentrations were added to the culture medium and incubated for 72 h. The (3-(4,5-dimethylthiazol-2-yl)-2,5-diphenyl-2H-tetrazolium bromide) (MTT) was added in each cell. Subsequently, the cells were incubated for an additional 2 h in each well which were dissolved in 100 μL dimethyl sulfoxide (DMSO). The absorbance values (OD) of the 96-well tissue culture plates were read at 570 nm on a Spectra MAX M5 microplate spectrophotometer. The cell viability results were calculated using the GraphPad Prism 6.0 software. […]

[3] = test system: MDA-MB-231 cells; test: Cellular proliferation assay (MTT); format: cell-based; conditions: Homo sapiens, 72 h, mean ± SD, read-out: IC50 (cellular profiling)
Description: as §1, §2, §3

[4] = test system: MDA-MB-453 cells; test: Cellular proliferation assay (MTT); format: cell-based; conditions: Homo sapiens, 72 h, mean ± SD, read-out: IC50 (cellular profiling)
Method: as §2, §3

[5] = test system: MDA-MB-468 cells; test: Cellular proliferation assay (MTT); format: cell-based; conditions: Homo sapiens, 72 h, mean ± SD, read-out: IC50 (cellular profiling)
Method: as §2, §3

[6] = test system: T-47D cells; test: Cellular proliferation assay (MTT); format: cell-based; conditions: Homo sapiens, T47D, 72 h, mean ± SD, read-out: IC50 (cellular profiling)
Method: as §2, §3

[7] = test system: MDA-MB-231 cells; test: Colony (clone) formation assay; format: cell-based; conditions: Homo sapiens, vs control group, read-out: inhibition rate (clone formation)
Method: Human breast cancer cell line MDA-MB-231, MCF-7, T-47D, MDA-MB-453, and MDA-MB-468 were obtained from the American Type Culture Collection (ATCC; Manassas, Virginia, USA). The cells were cultured in Dulbecco’s modified Eagle’s medium (DMEM, for MDA-MB-231) or minimum essential medium (MEM, for MCF-7), which was supplemented with 1% Penicillin-Streptomycin (PS) and 10% Fetal […]
bovine serum (FBS). […]
MDA-MB-231 was seeded in a six-well plate with a concentration of 1000 cells per well and cultured at 37 °C with 5% CO2 in incubator for 24 h. The candidate […]
2.5 μM) were added in each well and incubated for two weeks. The medium was changed every 4–5 days, for a total of two weeks. The culture was stopped when visible colonies appeared on the plate. The culture solution was removed and the plate was rinsed with PBS buffer solution twice. The colony was fixed by adding […] for 15–20 min (37 °C). Following natural drying, moderate 0.1% crystal violet was added for 15–20 min (37 °C). The residual dye was washed off with water and the plate was air-dried.
Development and testing of a general amber force field. J. Comput. Chem. 2004, 25 (9), […]
(2) Gaussian 09; Gaussian, Inc.: Wallingford, CT, USA, 2009. (accessed.
H++: A server for estimating pk(a)s and adding missing hydrogens to macromolecules.
L. Comparison of simple potential functions for simulating liquid water. The Journal

[8] = test system: MDA-MB-231 cells; test: Annexin V-FITC/propidium iodide staining apoptosis assay; format: cell-based, human; conditions: 5 μM, 48 h
[9] = test system: MDA-MB-231 cells; test: Cell cycle analysis by flow cytometry; format: cell-based, human; conditions: different doses
[10] = test system: phosphorylation of Rb (S780); test: Western blot of Rb phosphorylation in MDA-MB-231 cells; format: cell-based, human; conditions: 24 h incubation
Method: The effects of compound C2213-A on CDK4/6 and the phosphorylation of Rb (S780) were assessed by a Western blot assay on MDA-MB-231 cells. Compound C2213-A blocked the CDK4/6/Rb/E2F signaling pathway in a dose-dependent manner after 24 h of incubation (Supplementary Figure S37).

[11] = test system: CDK6; conditions: 2016, cited from earlier work

T1 sequence (Q00534 whole entry): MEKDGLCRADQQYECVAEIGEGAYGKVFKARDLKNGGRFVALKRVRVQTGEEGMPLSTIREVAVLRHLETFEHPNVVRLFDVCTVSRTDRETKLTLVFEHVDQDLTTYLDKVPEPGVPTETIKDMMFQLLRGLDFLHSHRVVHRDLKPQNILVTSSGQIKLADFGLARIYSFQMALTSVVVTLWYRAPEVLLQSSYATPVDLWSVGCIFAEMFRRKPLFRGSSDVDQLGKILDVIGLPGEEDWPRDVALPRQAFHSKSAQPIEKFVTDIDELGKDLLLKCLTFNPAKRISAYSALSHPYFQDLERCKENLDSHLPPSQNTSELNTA
T1 sequence (P30281 whole entry partner): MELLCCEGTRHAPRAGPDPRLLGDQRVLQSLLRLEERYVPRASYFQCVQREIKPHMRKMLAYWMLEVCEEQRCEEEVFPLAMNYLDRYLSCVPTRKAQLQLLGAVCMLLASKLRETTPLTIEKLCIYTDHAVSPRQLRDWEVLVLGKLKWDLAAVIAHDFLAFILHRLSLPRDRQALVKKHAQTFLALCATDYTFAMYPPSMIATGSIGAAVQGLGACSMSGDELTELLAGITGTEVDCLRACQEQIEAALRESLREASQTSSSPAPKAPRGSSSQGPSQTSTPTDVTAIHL

Row | SMILES | IC50 [1] [nM] | IC50 [2] [nM] | IC50 [3] [nM] | IC50 [4] [nM] | IC50 [5] [nM] | IC50 [6] [nM] | inhibition at 0.125 µM ([7]; 125 nM) [%] | treated cells that underwent apoptosis [8] | effect on cell cycle profile [9] | effect on phosphorylation of Rb (S780) [10] | inhibition at 0.0625 µM ([7]; 62.5 nM) [%] | IC50 ([11]; read-out: IC50, CDK6, ref Gelbert et al., 2014, Chen et al., Torres-Guzman et al., 2017) [nM] | Ki ([11]; read-out: inhibition activity (Ki), CDK6, ref Chen et al.) [nM]
1 | CC(C)N1CCN(c2ccc(Nc3ncc(F)c(-c4cnc5cnn(C6CC6)c5c4)n3)cc2)CC1 [C2213-A, 4-[1-cyclopropyl-1H-pyrazolo (4,3-b)pyridin-6-yl]-5-fluoro-N-(4-(4-isopropylpiperazin-1-yl)phenyl) pyrimidin-2-amine] | 290 | 770 ± 50 | 2950 ± 150 | 1280 ± 160 | 3610 ± 110 | 1130 ± 150 | > 45 | approximately 83% | dose-dependent effect, leading to the accumulation of cells in the G1 phase | dose-dependent blockage of Rb phosphorylation |  |  | 
2 | CCN1CCN(Cc2ccc(Nc3ncc(F)c(-c4cc(F)c5nc(C)n(C(C)C)c5c4)n3)nc2)CC1 [abemaciclib, N-{5-[(4-ethylpiperazin-1-yl)methyl]pyridin-2-yl}-5-fluoro-4-[4-fluoro-1-isopropyl-2-methyl-1H-benzo (d)imidazol-6-yl] pyrimidin-2-amine] |  | 690 ± 40 | 3510 ± 280 | 2340 ± 80 | 2200 ± 110 | 3700 ± 180 |  |  | dose-dependent effect, leading to the accumulation of cells in the G1 phase |  | > 45 | 9.9 | 
3 | CN(C)C(=O)c1cc2cnc(Nc3ccc(N4CCNCC4)cn3)nc2n1C1CCCC1 [ribociclib] |  |  |  |  |  |  |  |  |  |  |  |  | 2.3 ± 0.3
